# Reference: the supplement of paper PMC10307832
# How the values were obtained:
# Test in all cases: relative viability (nuclei count vs DMSO), 5 days (fraction); higher = more cells survive
# [1] = tested on: NCI-H1650
# Procedure, shortened: (§1)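 Dosing by pin tool came one day after lung cancer cell lines were seeded in 1536-well plates, using either one drug or a fixed anchor-drug dose plus five library-drug doses (not always all listed) in √10 steps. After 5 days, nuclei were counted on 4× images. Relative viability is treated-well nuclei count divided by vehicle-well nuclei count, and values are medians of duplicate plates.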
# [2] = tested on: HCC-44
# Procedure, shortened: as §1
# [3] = tested on: NCI-H460
# Procedure, shortened: as §1
# [4] = tested on: LU99A
# Procedure, shortened: as §1
# [5] = tested on: LCLC-97TM1
# Procedure, shortened: as §1
# [6] = tested on: 201T
# Procedure, shortened: as §1
# [7] = tested on: COR-L23
# Procedure, shortened: as §1
# [8] = tested on: LK-2
# Procedure, shortened: as §1
# [9] = tested on: SW 1573
# Procedure, shortened: as §1
# [10] = tested on: NCI-H727
# Procedure, shortened: as §1
# [11] = tested on: H3255
# Procedure, shortened: as §1
# [12] = tested on: NCI-H596
# Procedure, shortened: as §1
# [13] = tested on: LC-2-ad
# Procedure, shortened: as §1
# [14] = tested on: LCLC-103H
# Procedure, shortened: as §1
# [15] = tested on: NCI-H1563
# Procedure, shortened: as §1
# [16] = tested on: A-427
# Procedure, shortened: as §1
# [17] = tested on: NCI-H23
# Procedure, shortened: as §1
# [18] = tested on: NCI-H2347
# Procedure, shortened: as §1
# [19] = tested on: PC-14
# Procedure, shortened: as §1
# [20] = tested on: NCI-H2228
# Procedure, shortened: as §1
compound,measurement,setting,value
CC(=O)O[C@@]12CO[C@@H]1C[C@H](O)[C@@]1(C)C(=O)[C@H](O)C3=C(C)[C@@H](OC(=O)[C@H](O)[C@@H](NC(=O)OC(C)(C)C)c4ccccc4)C[C@@](O)([C@@H](OC(=O)c4ccccc4)[C@H]21)C3(C)C [Docetaxel] + C[C@@H](Oc1cc(-c2cnn(C3CCNCC3)c2)cnc1N)c1c(Cl)ccc(F)c1Cl [Crizotinib] (partner 1 µM),relative viability,[1]; first compound 0.0002 µM,0.906
same,relative viability,[1]; first compound 0.000632 µM,0.398
same,relative viability,[1]; first compound 0.002 µM,0.206
same,relative viability,[1]; first compound 0.006325 µM,0.185
same,relative viability,[1]; first compound 0.02 µM,0.141
same,relative viability,[2]; first compound 0.0002 µM,0.805
same,relative viability,[2]; first compound 0.000632 µM,0.536
same,relative viability,[2]; first compound 0.002 µM,0.483
same,relative viability,[2]; first compound 0.006325 µM,0.195
same,relative viability,[2]; first compound 0.02 µM,0.12
same,relative viability,[3]; first compound 0.0002 µM,0.73
same,relative viability,[3]; first compound 0.000632 µM,0.673
same,relative viability,[3]; first compound 0.002 µM,0.0086
same,relative viability,[3]; first compound 0.006325 µM,0.0137
same,relative viability,[3]; first compound 0.02 µM,0.0093
same,relative viability,[4]; first compound 0.0002 µM,0.522
same,relative viability,[4]; first compound 0.000632 µM,0.401
same,relative viability,[4]; first compound 0.002 µM,0.367
same,relative viability,[4]; first compound 0.006325 µM,0.278
same,relative viability,[4]; first compound 0.02 µM,0.196
same,relative viability,[5]; first compound 0.000632 µM,0.178
same,relative viability,[5]; first compound 0.002 µM,0.115
same,relative viability,[5]; first compound 0.006325 µM,0.139
same,relative viability,[5]; first compound 0.02 µM,0.12
same,relative viability,[6]; first compound 0.0002 µM,0.983
same,relative viability,[6]; first compound 0.000632 µM,1.03
same,relative viability,[6]; first compound 0.002 µM,0.908
same,relative viability,[6]; first compound 0.006325 µM,0.646
same,relative viability,[6]; first compound 0.02 µM,0.5
same,relative viability,[7]; first compound 0.0002 µM,0.536
same,relative viability,[7]; first compound 0.000632 µM,0.483
same,relative viability,[7]; first compound 0.002 µM,0.111
same,relative viability,[7]; first compound 0.006325 µM,0.132
same,relative viability,[7]; first compound 0.02 µM,0.0806
same,relative viability,[8]; first compound 0.0002 µM,0.209
same,relative viability,[8]; first compound 0.000632 µM,0.202
same,relative viability,[8]; first compound 0.002 µM,0.228
same,relative viability,[8]; first compound 0.006325 µM,0.213
same,relative viability,[8]; first compound 0.02 µM,0.228
same,relative viability,[9]; first compound 0.0002 µM,0.737
same,relative viability,[9]; first compound 0.000632 µM,0.307
same,relative viability,[9]; first compound 0.006325 µM,0.218
same,relative viability,[9]; first compound 0.02 µM,0.203
same,relative viability,[10]; first compound 0.0002 µM,0.862
same,relative viability,[10]; first compound 0.000632 µM,0.815
same,relative viability,[10]; first compound 0.002 µM,0.344
same,relative viability,[10]; first compound 0.006325 µM,0.298
same,relative viability,[10]; first compound 0.02 µM,0.24
same,relative viability,[11]; first compound 0.0002 µM,0.654
same,relative viability,[11]; first compound 0.000632 µM,0.757
same,relative viability,[11]; first compound 0.002 µM,0.376
same,relative viability,[11]; first compound 0.006325 µM,0.267
same,relative viability,[11]; first compound 0.02 µM,0.252
same,relative viability,[12]; first compound 0.0002 µM,0.986
same,relative viability,[12]; first compound 0.000632 µM,0.798
same,relative viability,[12]; first compound 0.002 µM,1.01
same,relative viability,[12]; first compound 0.006325 µM,0.475
same,relative viability,[12]; first compound 0.02 µM,0.462
same,relative viability,[13]; first compound 0.0002 µM,0.388
same,relative viability,[13]; first compound 0.000632 µM,0.342
same,relative viability,[13]; first compound 0.002 µM,0.318
same,relative viability,[13]; first compound 0.006325 µM,0.389
same,relative viability,[13]; first compound 0.02 µM,0.222
same,relative viability,[14]; first compound 0.0002 µM,1.19
same,relative viability,[14]; first compound 0.000632 µM,1.04
same,relative viability,[14]; first compound 0.002 µM,0.776
same,relative viability,[14]; first compound 0.006325 µM,0.674
same,relative viability,[14]; first compound 0.02 µM,0.756
same,relative viability,[15]; first compound 0.0002 µM,0.829
same,relative viability,[15]; first compound 0.000632 µM,0.926
same,relative viability,[15]; first compound 0.002 µM,0.928
same,relative viability,[15]; first compound 0.006325 µM,0.799
same,relative viability,[15]; first compound 0.02 µM,0.77
same,relative viability,[16]; first compound 0.0002 µM,0.998
same,relative viability,[16]; first compound 0.000632 µM,0.859
same,relative viability,[16]; first compound 0.002 µM,0.506
same,relative viability,[16]; first compound 0.006325 µM,0.221
same,relative viability,[16]; first compound 0.02 µM,0.167
same,relative viability,[17]; first compound 0.0002 µM,0.534
same,relative viability,[17]; first compound 0.000632 µM,0.412
same,relative viability,[17]; first compound 0.002 µM,0.271
same,relative viability,[17]; first compound 0.006325 µM,0.189
same,relative viability,[17]; first compound 0.02 µM,0.113
same,relative viability,[18]; first compound 0.0002 µM,0.736
same,relative viability,[18]; first compound 0.000632 µM,0.702
same,relative viability,[18]; first compound 0.002 µM,0.695
same,relative viability,[18]; first compound 0.006325 µM,0.589
same,relative viability,[18]; first compound 0.02 µM,0.422
same,relative viability,[19]; first compound 0.0002 µM,0.932
same,relative viability,[19]; first compound 0.000632 µM,0.861
same,relative viability,[19]; first compound 0.002 µM,0.317
same,relative viability,[19]; first compound 0.006325 µM,0.0812
same,relative viability,[19]; first compound 0.02 µM,0.0748
same,relative viability,[20]; first compound 0.0002 µM,0.358
same,relative viability,[20]; first compound 0.000632 µM,0.292
same,relative viability,[20]; first compound 0.002 µM,0.22
same,relative viability,[20]; first compound 0.006325 µM,0.278
same,relative viability,[20]; first compound 0.02 µM,0.159
